Numbered stars: 1 amine (or outer) side, 2 acyl side, 3 side chain; on linkers, the order of the positions; unused ones are H or OH. Square brackets hold non-standard residues; d marks the D form. Side chains are listed from the residue outwards. * marks the point of attachment. γGlu = O=C(O)[C@H](CCC(=O)[*:2])N[*:1]; Palmitoyl = CCCCCCCCCCCCCCCC(=O)*; Aib = CC(C)(N)C(=O)O
Tests used:
[1] = test system: db/db (BKS.Cg-m+/+Lepr^db/J) female mice; assay: 21-day s.c. treatment of db/db mice: body weight, food and water intake; format: in vivo; details: 21 days, bi-daily s.c., Lantus 3 U, Levemir 6 U, Compound X 10 nmol/kg, vs. vehicle (FIG. 1)
Description: Eighty (80) db/db (BKS.Cg-m+/+Lepr^db/J) female mice aged 7 weeks were obtained from Charles River, US. The mice were acclimatized in their new environment and allowed free access to normal chow (Altromin 1324, Brogaarden A/S, Gentofte, Denmark) and domestic quality tap water added citric acid to pH ˜3.6, except as indicated. The mice were group-housed with 3-4 mice per cage in a light-, temperature-, and humidity-controlled room (12-hour light: 12-hour dark cycle, with lights on at 06.00 AM to 06.00 PM hour; 24° C.; 50% relative humidity).
Prior to treatment, in weeks 1-3, a tail-blood sample for the determination of blood glucose was obtained on non-fasted animals to determine diabetic state and to identify outliers, which were excluded. The inclusion criteria of BG>16 mM glucose was applied.
Stratification of the animals was based on HbA1c levels (primary) and BW as measured at baseline (day −4). Thus, on day −3, the 66 mice were selected based on the pre-screen and baseline measurements into 6 study groups of 11 mice (3-4 mice/cage).
(§1) All mice were mock treated for at 3 days (BID, SC, 100 μl vehicle) to acclimatize the animals to handling and injections. Dosing (day 0, mice at age 12 weeks as in pilot study) started in the afternoon on that day, and the mice were treated twice daily with 2 SC injections according to Table 1 for a total of 21 days (4 injections per day). Thus, last day of dosing was day 21 in the morning. The daily injections took place between 7:00 and 8:00 and between 14:00 and 15:00 with fresh solutions prepared in the morning (only Compound X). […]
Dosing solutions of Compound X for the weekend were prepared the Friday before. […] Throughout the study (day −2 to day 21) body weights (8W) were recorded daily and used to administer the body weight-corrected doses of substances. Food and water intake (FI, WI) was measured every day (day −3 to day 21) as cage averages.
In Vivo: female db/db mice aged 10-11 weeks were treated for 21 days with bi-daily s.c. injections. […] Fasting blood glucose (BG) was measured before and after 21 days of treatment.

[2] = test system: db/db (BKS.Cg-m+/+Lepr^db/J) female mice; assay: 21-day s.c. treatment of db/db mice: fasting blood glucose (delta-BG); format: in vivo; details: fasted female db/db mice, over 21 days of bi-daily s.c. treatment; Lantus 3 U, Levemir 6 U, Compound X 10 nmol/kg; average +/- SEM (FIG. 4)
Method: as §1, with “X). Insulin was kept in the refrigerator.” for “X).”
On day 21 (before termination) in 8 h fasted mice a blood sample (350 μl) was taken, and BG, HbA1c, and p-insulin were measured as described above. […]
The whole blood glucose level was analyzed on tail-blood samples by the immobilized glucose oxidase method (Elite Auto analyser, Bayer, Denmark) following the manufacturer's protocol. Blood samples (sample size 30 μl) were analyzed for HbA1c using the Cobas c111 analyzer (Roche Diagnostics, Mannheim, Germany) in single determinations by Department of Molecular Pharmacology. Plasma (sample size 5 μl) and insulin content was measured using an insulin alpha-LISA assay in triplicate by Department of Molecular Pharmacology. A measure of peptide exposure in plasma (sample size 100 μl) will be determined by the Department of Bioanalysis and Pharmacokinetics. […]

H-H-Aib-QGTFTSDYSKYLDS-K(Hexadecanoyl-isoGlu)-AAHDFVEWLLSA-NH2 (H-H[Aib]QGTFTSDYSKYLDSK([γGlu-Palmitoyl])AAHDFVEWLLSA-NH2; SMILES CCCCCCCCCCCCCCCC(=O)N[C@@H](CCC(=O)NCCCC[C@H](NC(=O)[C@H](CO)NC(=O)[C@H](CC(=O)O)NC(=O)[C@H](CC(C)C)NC(=O)[C@H](Cc1ccc(O)cc1)NC(=O)[C@H](CCCCN)NC(=O)[C@H](CO)NC(=O)[C@H](Cc1ccc(O)cc1)NC(=O)[C@H](CC(=O)O)NC(=O)[C@H](CO)NC(=O)[C@@H](NC(=O)[C@H](Cc1ccccc1)NC(=O)[C@@H](NC(=O)CNC(=O)[C@H](CCC(N)=O)NC(=O)C(C)(C)NC(=O)[C@@H](N)Cc1c[nH]cn1)[C@@H](C)O)[C@@H](C)O)C(=O)N[C@@H](C)C(=O)N[C@@H](C)C(=O)N[C@@H](Cc1c[nH]cn1)C(=O)N[C@@H](CC(=O)O)C(=O)N[C@@H](Cc1ccccc1)C(=O)N[C@H](C(=O)N[C@@H](CCC(=O)O)C(=O)N[C@@H](Cc1c[nH]c2ccccc12)C(=O)N[C@@H](CC(C)C)C(=O)N[C@@H](CC(C)C)C(=O)N[C@@H](CO)C(=O)N[C@@H](C)C(N)=O)C(C)C)C(=O)O) [Compound X, acylated glucagon analogue, glucagon-GLP-1 dual agonist]
body weight (BW) change [1]: significant decrease

Insulin detemir [Levemir]
body weight (BW) change [1]: significant increase
delta-BG (delta-Blood Glucose) [2]: -2.1 ± 1.6 mM

Insulin glargine [Lantus]
body weight (BW) change [1]: significant increase
delta-BG (delta-Blood Glucose) [2]: -9.6 ± 1.9 mM

— patent publication US20160000883A1, “COMBINATION OF ACYLATED GLUCAGON ANALOGUES WITH INSULIN ANALOGUES” (ZEALAND PHARMA A/S, priority 2011, published 2016)
